Legend:
[1] = test system: SKOV-3; assay: Viability assay (MTT based), SKOV-3; type: cell-based; conditions: Homo sapiens, SK-OV-3, SKOV-3 cells, 72 hours, read-out: SKOV-3 ED50
Description: (§1) MDA-MD-231 (breast) and SKOV-3 cancer cells were cultured in RPMI1640 media supplemented with 10% FBS and 100 units/mL of Penicillin and Streptomycin.
(§2) Viability assays were done on a number of cells including MDA-MB-231, SKOV-3, H460, PC3, HCT-116, and SW480 cells. Cells were seeded in 96 well plates at a respective density of 5000 and 2000 cells per well and incubated at 37° C. in presence of 5% CO2 for 24 hours. Selected compounds were diluted into the media at various concentration ranging from 0.01 uM up to 100 uM. Diluted compounds were added onto the MDA-MB-231 cells. For the MDA-MB-231 SKOV3, H460, PC3, HCT-116, and SW480 cells, the compounds were added either alone or in presence of 1-3 ng/ml of TRAIL. After 72 hours cellular viability was evaluated by MTT based assays.

[2] = test system: MDA-MB-231; assay: Viability assay (MTT based), MDA-MB-231; type: cell-based; conditions: Homo sapiens, MDA-MB-231 cells, 72 hours, read-out: MDA-MB-231 ED50
Description: as §1, §2

Row | Structure (SMILES) | EC50 [1] [nM] | EC50 [2] [nM]
1 | CN[C@@H](C)C(=O)N[C@@H](Cc1ccc(C#CCO[C@H](C)[C@H](NC(=O)[C@H](C)NC)C(=O)N2CCC[C@H]2CN(CCc2ccccc2)C(=O)[C@H](N)Cc2ccc(OC)cc2)cc1)C(=O)N1CCC[C@H]1CN(CCc1ccccc1)C(=O)C(F)(F)F [Compound 5] | 57 | 
2 | CN[C@@H](CO)C(=O)N[C@@H](Cc1ccc(C#CCO[C@H](C)[C@H](NC(=O)[C@H](CO)NC)C(=O)N2CCC[C@H]2CN(CCc2ccccc2)C(=O)[C@H](N)Cc2ccc(OC)cc2)cc1)C(=O)N1CCC[C@H]1CN(CCc1ccccc1)C(=O)C(F)(F)F [Compound 8] | 1920 | 
3 | CN[C@@H](C)C(=O)N[C@@H](Cc1ccc(C#CCO[C@H](C)[C@H](NC(=O)[C@H](C)NC)C(=O)N2CCC[C@H]2CN(CCc2ccccc2)C(=O)C(F)(F)F)cc1)C(=O)N1CCC[C@H]1CN(CCc1ccccc1)C(=O)C(F)(F)F [Compound 1] | 131 | 17
4 | CN[C@@H](C)C(=O)N[C@@H](Cc1ccc(C#CC#Cc2ccc(C[C@H](NC(=O)[C@H](C)NC)C(=O)N3CCC[C@H]3CN(CCc3ccccc3)C(=O)C(F)(F)F)cc2)cc1)C(=O)N1CCC[C@H]1CN(CCc1ccccc1)C(=O)C(F)(F)F [Compound 3] | 67 | 
5 | CN[C@@H](C)C(=O)N[C@@H](Cc1ccc(-c2ccc(C[C@H](NC(=O)[C@H](C)NC)C(=O)N3CCC[C@H]3CN(CCc3ccccc3)C(=O)C(F)(F)F)cc2)cc1)C(=O)N1CCC[C@H]1CN(CCc1ccccc1)C(=O)C(F)(F)F [Compound 2] |  | 150
6 | CN[C@@H](C)C(=O)N[C@@H](Cc1ccc(C#Cc2ccc(C[C@H](NC(=O)[C@H](C)NC)C(=O)N3CCC[C@H]3CN(CCc3ccccc3)C(=O)C(F)(F)F)cc2)cc1)C(=O)N1CCC[C@H]1CN(CCc1ccccc1)C(=O)C(F)(F)F [Compound 4] | 37 | 159
7 | CN[C@@H](C)C(=O)N[C@@H](Cc1ccc(C#CCO[C@H](C)[C@H](NC(=O)[C@H](CO)NC)C(=O)N2CCC[C@H]2CN(CCc2ccccc2)C(=O)[C@H](N)Cc2ccc(OC)cc2)cc1)C(=O)N1CCC[C@H]1CN(CCc1ccccc1)C(=O)C(F)(F)F [Compound 6] | 557 | 
8 | CN[C@@H](C)C(=O)N[C@H](C(=O)N1CCC[C@H]1CN(CCc1ccccc1)C(=O)[C@H](N)Cc1ccc(OC)cc1)[C@@H](C)OCC#Cc1ccc(C[C@H](NC(=O)[C@H](CO)NC)C(=O)N2CCC[C@H]2CN(CCc2ccccc2)C(=O)C(F)(F)F)cc1 [Compound 7] | 136 | 
